Measured values reported in US11484517B2, “Combination comprising a PPAR agonist such as elafibranor and an acetyl-CoA carboxylase (ACC) inhibitor” (GENFIT, priority 2017, dated 2022).

Experiments:
[1] = tested on: CDFF-fed mice; test: mouse fibrosing-NASH model, CDFF diet (8 weeks); assay type: in vivo, C57Bl/6J mice
Protocol: The preventive effects of the combinations of elafibranor with selonsertib, GKT-831 or GS-0976 were assessed in mice fed a choline-deficient, […] diet (CDAA) supplemented with 2% cholesterol, 30% milk fat diet and high fructose corn syrup 55 (55% fructose/45% glucose for a final concentration of 42 g/L) in drinking water (Mells et al J Nutr Biochem 2015) (CDFF diet). 5-6 weeks old male C57Bl/6J mice were fed a control (CSAA) diet (n=4), CDFF (n=12), or CDFF supplemented with elafibranor (1 or 3 mg/kg/day), selonsertib (30 mg/kg/day), GKT-831 ([…]) alone or in combination (n=8 per group) for 8 weeks.
The body weight, the food and water intake were monitored twice per week. On the last day of treatment, plasma samples were obtained from retro-orbital blood sampling and mice were sacrificed after a 6 h-fasting period. The liver was rapidly excised for biochemical and histological analyses. […]
A technician blinded to the source of each liver specimen performed histological examinations. […] Briefly, steatosis, lobular inflammation and hepatocyte ballooning were scored. […]
(§1) Using Quant Center software (3D Histech, including Pattern Quant and Histo Quant modules), collagen-stained areas were quantified. […] The fibrosis area was then expressed as the percentage of the collagen surface to the whole tissue per animal.
(§2) The hepatic collagen content was determined using the appropriate QuickZyme kit (Total collagen assay, cat # QZB-totcol2). […]
(§3) Complete hydrolysis of tissue samples in 6M HCl at 95° C. is required before dosing the hydroxyproline. The assay results in the generation of a chromogen with a maximum absorbance at 570 nm. Results are expressed as mg of collagen/g of liver. […]
The plasmatic concentration of PIIINP was determined using an ELISA assay from Cloud-Clone Corp (cat # SEA573Mu), according to the manufacturer's instructions. […] The enzyme-substrate reaction is terminated by the addition of sulphuric acid solution and the color change is measured spectrophotometrically at a wavelength of 450 nm±10 nm. […]

[2] = tested on: TGFβ1-induced hHSC; test: α-SMA ELISA in TGFβ1-induced hHSC; assay type: cell-based, human
Protocol: (§4) The human primary hepatic stellate cells (hHSC) (Innoprot) were cultured under standard conditions, as described above.
The level of α-SMA was measured using a Sandwich ELISA. Briefly, the wells of an ELISA plate were first coated with the capture antibody (mouse monoclonal anti-ACTA2, Abnova) at 4° C. overnight. […] The cell lysates were transferred into the wells for binding to the capture antibody for a period of 2 h at room temperature. After the washing procedure, the detection antibody (biotinylated mouse monoclonal anti-ACTA2, Abnova) was added for 2 hours at room temperature followed by 3 washes. […] Upon oxidation, TMB forms a water-soluble blue reaction product that becomes yellow with addition of sulfuric acid (solution stop), enabling accurate measurement of the intensity at 450 nm using a spectrophotometer. The developed color is directly proportional to the amount of α-SMA present in the lysate.
as §4

[3] = tested on: rats fed a CDAA+1% cholesterol diet; test: chronic CDAA+1% cholesterol fibrosing NASH-model of rats (12 weeks); assay type: in vivo, Wistar rats; conditions: liver; Percentage over the untreated CDAA + 1% cholesterol rats; GFT505 3 mg/kg/d, OCA 10 mg/kg/d
Protocol: Evaluation of Elafibranor, OCA and the combination Elafibranor+OCA in a chronic CDAA+1% cholesterol model (12 weeks).
The preventive effects of Elafibranor alone, OCA alone and the combination of both were assessed in a fibrosing NASH-model of rats fed a CDAA+1% cholesterol diet. 150-175 g male Wistar rats were fed a control (CSAA) diet, CDAA+1% cholesterol diet, or CDAA+1% cholesterol diet supplemented with Elafibranor 1, 3 and 10 mg/kg/day, OCA 10 and 30 mg/kg/day or combined drugs (Elafibranor 1, 3 and 10 mg/kg/day combined to OCA 10 mg/kg/day) for 12 weeks.
The body weight and the food intake were monitored twice per week. On the last day of treatment, rats were sacrificed after a 6 h fasting period. The liver was rapidly excised for biochemical and histological studies.
A technician blinded to the source of each liver specimen performed histological examinations. Virtual slides were generated using the Pannoramic 250 scanner from 3D Histech. […] Briefly, steatosis, lobular inflammation and hepatocytes ballooning were scored. […]
as §1, §2, §3
Quantitative PCR was then carried out using the CFX96 TOUCH Real-Time PCR Detection System (Biorad). […]
Expression levels were normalized using the expression of RPLP0 gene as a housekeeping gene of reference in samples. […] Expression levels were determined using the standard curve equation for both the housekeeping gene and the target gene (taking into account the specific PCR efficiency of each target gene).

Cc1cc(F)c(C(=O)Nc2cccc(-c3nncn3C(C)C)n2)cc1-n1cnc(C2CC2)c1 [Selonsertib, selonsertib]
hepatic fibrosis (histology, hepatic collagen content, release of PIIINP and TIMP-1) ([1]; 8 weeks, elafibranor 3 mg/kg/day, selonsertib 30 mg/kg/day): improved hepatic fibrosis

CN(C)c1cccc(-c2c3c(=O)n(-c4ccccc4Cl)[nH]c3cc(=O)n2C)c1 [GKT-831, 2-(2-chlorophenyl)-4-[3-(dimethylamino)phenyl]-5-methyl-1H-pyrazolo[4,3-c]pyridine-3,6(2H,5H)-dione]
effect on NASH and fibrosis (inflammatory infiltrates, NAFLD activity score, fibrosis) ([1]; GKT-831 60 mg/kg/day, elafibranor 1 mg/kg/day): no beneficial effect

COc1ccccc1[C@H](Cn1c(=O)n(C(C)(C)C(=O)O)c(=O)c2c(C)c(-c3ncco3)sc21)OC1CCOCC1 [GS-0976]
effect on liver fat and body weight ([1]; GS-0976 30 mg/kg/day alone): mild beneficial effect

CCCCOCCOc1ccc(-c2ccc3c(c2)/C=C(/C(=O)Nc2ccc([S@@+]([O-])Cc4cncn4CCC)cc2)CCCN3CC(C)C)cc1 [CVC, Cenicriviroc]
α-SMA inhibition, single agent ([2]; 5 μM alone, TGFβ1-induced hHSC): does not show any antifibrotic activity | antifibrotic effect (α-SMA), single agent, in words ([2]; TGFβ1-activated hHSC, all doses): did not show a significant effect at all doses

CC[C@H]1[C@@H](O)[C@@H]2[C@H](CC[C@]3(C)[C@@H]([C@H](C)CCC(=O)O)CC[C@@H]23)[C@@]2(C)CC[C@@H](O)C[C@@H]12 [OCA, obeticholic acid]
CCR5 mRNA level (marker of inflammation) [3]: 81% ± 28% | TGFβ1 mRNA level [3]: 110% ± 23% | TIMP1 mRNA level [3]: 110% ± 43%
